Tested on: LDLr-/- mice fed an atherogenic (Western) diet
Experiment: Diet-induced atherosclerosis in LDLr-/- mice with mast cell stabilization or activation
Type: in vivo, mouse
Conditions: male LDLr-/- mice, 25 mg/kg/day daily

O=C(O)c1cc(=O)c2c(OCC(O)COc3cccc4oc(C(=O)O)cc(=O)c34)cccc2o1 [DSCG, disodium cromoglycate]
reduction of atherosclerotic lesion development (12 weeks): > 50% | reduction of atherosclerotic lesion development (26 weeks): > 50%

From patent US8445437B2, “Treatment and prevention of cardiovascular disease using mast cell stabilizers” (The Brigham and Women's Hospital, Inc., priority 2006, dated 2013)
